The CheMixHub ionic liquid set

Experiment: xn = mol fraction of the nth substance listed

CCC[N+]1(C)CCCC1.O=S(=O)([N-]S(=O)(=O)C(F)(F)F)C(F)(F)F + CCCC[N+]1(C)CCCC1.O=S(=O)([N-]S(=O)(=O)C(F)(F)F)C(F)(F)F
101 kPa
Conditions	electrical conductivity [S/m]	viscosity [mPa·s]
293.15 K, x2 = 0.25	0.248	81.4
333.15 K, x2 = 0	1.18	18.8
333.15 K, x2 = 0.75	1.01	20.7
353.15 K, x2 = 0.5	1.5	12.2

CC1COC(=O)O1 (centres undefined) + CCCC[n+]1ccccc1.N#C[N-]C#N
101 kPa, x2 = 0
Conditions	viscosity [mPa·s]
318.15 K	1.724
333.15 K	1.366

CC[n+]1ccn(C)c1.N#C[N-]C#N + CCC(C)O
viscosity [mPa·s], 100 kPa
Conditions	x1 = 0.1023	x1 = 0.2005	x1 = 0.3015	x1 = 0.4018	x1 = 0.5032	x1 = 0.6026	x1 = 0.7026	x1 = 0.8032	x1 = 0.9029	x1 = 1
298.15 K	3.05	3.17	3.48	3.86	4.53	5.4	6.7	8.3	10.3	13.1
303.15 K	2.59	2.71	3.02	3.41	4.07	4.95	6.1	7.5	9.6	11.8
308.15 K	2.25	2.37	2.68	3.06	3.72	4.63	5.6	7	8.9	10.9
313.15 K	2.01	2.13	2.41	2.69	3.36	4.19	5.1	6.4	7.8	9
318.15 K	1.83	1.95	2.26	2.54	3.06	3.79	4.59	5.8	6.9	8.1
323.15 K	1.67	1.79	2.05	2.26	2.83	3.51	4.18	5	6.2	7.3

CCCC[n+]1ccn(C)c1.F[B-](F)(F)F + NCCNCCN
101.3 kPa, x1 = 1
Conditions	viscosity [mPa·s]
298.15 K	101.1
303.15 K	81.9
308.15 K	63.6

[Br][Al]([Br])[Br] + CC[n+]1ccn(C)c1.[Br-]
Conditions	electrical conductivity [S/m]
298.15 K, 101.3 kPa, x1 = 0.35	0.625
